Laboratory results from ChEMBL document CHEMBL3399973, “Synthesis and biological evaluation of isoxazoline derivatives as potent M₁ muscarinic acetylcholine receptor agonists” (Bioorg Med Chem Lett, 2015).

Tests used:
[1] = biological target: T1, Muscarinic acetylcholine receptor M1 (Homo sapiens) (UniProt P11229); details: HEK293, at 10 µM
T1 sequence (whole entry): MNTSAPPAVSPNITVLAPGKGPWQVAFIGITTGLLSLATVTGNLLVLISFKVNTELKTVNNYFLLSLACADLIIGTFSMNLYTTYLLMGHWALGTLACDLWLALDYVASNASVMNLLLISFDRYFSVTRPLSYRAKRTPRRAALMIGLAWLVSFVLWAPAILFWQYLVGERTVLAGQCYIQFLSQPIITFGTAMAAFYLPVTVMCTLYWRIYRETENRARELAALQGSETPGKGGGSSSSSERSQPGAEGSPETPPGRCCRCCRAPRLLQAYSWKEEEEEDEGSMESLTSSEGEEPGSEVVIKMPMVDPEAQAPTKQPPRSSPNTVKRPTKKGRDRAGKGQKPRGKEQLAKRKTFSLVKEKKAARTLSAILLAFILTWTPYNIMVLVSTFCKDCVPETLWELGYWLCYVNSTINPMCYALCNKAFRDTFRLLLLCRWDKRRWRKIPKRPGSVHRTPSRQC

[2] = biological target: T1, Muscarinic acetylcholine receptor M1 (Homo sapiens); details: HEK293, at 10 µM; remark: listed apart in the source
[3] = biological target: T2, Muscarinic acetylcholine receptor M1 (Homo sapiens, UniProt P11229)
T2 sequence (P11229 whole entry): T1 sequence (whole entry)

[4] = biological target: T1, Muscarinic acetylcholine receptor M1 (Homo sapiens); experiment: Agonist activity at human m1 muscarinic acetylcholine receptor expressed in HEK293 cells assessed as relative ratio of phosphorylated ERK1/2 to ERK1/2 at 1 uM after 2 mins by Western blotting analysis relative to 100 uM acetylcholine response; assay type: cell-based
SH-SY5Y [5] = experiment: Induction of sAPPalpha release in human SH-SY5Y cells assessed as fold changed at 1 uM after 1 hr by immunoblotting analysis relative to 100 uM acetylcholine response; assay type: functional
SH-SY5Y [6] = experiment: Induction of sAPPalpha release in human SH-SY5Y cells after 1 hr by immunoblotting analysis; assay type: functional, cell-based
SH-SY5Y [7] = experiment: Induction of sAPPalpha release in human SH-SY5Y cells assessed as fold changed at 0.01 uM after 1 hr by immunoblotting analysis relative to 100 uM acetylcholine response; assay type: functional
[8] = biological target: T1, Muscarinic acetylcholine receptor M1 (Homo sapiens); experiment: Agonist activity at human m1 muscarinic acetylcholine receptor expressed in HEK293 cells assessed as relative ratio of phosphorylated ERK1/2 to ERK1/2 at 10 uM after 2 mins by Western blotting analysis relative to 100 uM acetylcholine response; assay type: cell-based
[9] = biological target: T1, Muscarinic acetylcholine receptor M1 (Homo sapiens); experiment: Agonist activity at human m1 muscarinic acetylcholine receptor expressed in HEK293 cells assessed as relative ratio of phosphorylated ERK1/2 to ERK1/2 at 100 uM after 2 mins by Western blotting analysis relative to 100 uM acetylcholine response; assay type: cell-based
[10] = biological target: T1, Muscarinic acetylcholine receptor M1 (Homo sapiens); experiment: Agonist activity at human m1 muscarinic acetylcholine receptor expressed in HEK293 cells assessed as activation of ERK1/2 phosphorylation after 2 mins by Western blotting analysis; assay type: cell-based
SH-SY5Y [11] = experiment: Induction of sAPPalpha release in human SH-SY5Y cells assessed as fold changed at 0.1 uM after 1 hr by immunoblotting analysis relative to 100 uM acetylcholine response; assay type: functional

Row | SMILES | inhibition [1] | Efficacy [2] | EC50 [3] | also measured
1 | CN1CCCC(C2=NOC(N3CCCC3=O)C2)C1 (stereo not drawn) | 20.7% | 2.2% | – | –
2 | O=C1CCCN1C1CC(CCN2CCCC2)=NO1 (stereo not drawn) | 20.7% | 2.2% | – | –
3 | O=C1CCCN1C1CC(CN2CCCCC2)=NO1 (stereo not drawn) | 20.7% | 2.2% | – | –
4 | O=C1CCCN1CC#CCN1CCCC1 [OXOTREMORINE] | – | 108% | 0.0016 µM | –
5 | O=C1CCCN1C1CC(CN2CCCC2)=NO1 (stereo not drawn) | 20.7% | 2.2% | – | –
6 | O=C1CCCN1C1CC(CCN2CCCCC2)=NO1 (stereo not drawn) | 20.7% | 2.2% | – | –
7 | CO/N=C/C1=CCCN(C)C1 [MILAMELINE] | – | 83% | 0.021 µM | –

Continued, in another order:

Row | inhibition [1] | Efficacy [2] | EC50 [3] | SMILES | also measured
8 | – | 58.8% | 7.54 µM | CN1CCC=C(C2=NOC(C#N)C2)C1 (stereo not drawn) | –
9 | 34% | 2.4% | – | CCOC1CC(C2=CCCN(C)C2)=NO1 (stereo not drawn) | –
10 | – | 61.3% | 5.68 µM | CSCC1CC(C2=CCCN(C)C2)=NO1 (stereo not drawn) | –
11 | – | 95.8% | 0.78 µM | CN1CCC=C(c2ccon2)C1 | –
12 | – | 99.5% | 0.031 µM | CN1CCC=C(C2=NOC(N3CCCC3=O)C2)C1 (stereo not drawn) | Ratio [4]: 1.3; fold change (FC) (SH-SY5Y [5]): 3.4; Activity (SH-SY5Y [6]): Dose-dependent effect; fold change (FC) (SH-SY5Y [7]): 1.5; Ratio [8]: 1.7; Ratio [9]: 1.8; Activity [10]: Dose-dependent effect; fold change (FC) (SH-SY5Y [11]): 2.5
13 | – | 36.9% | 17.3 µM | CN1CCC=C(C2=NOC(O)C2)C1 (stereo not drawn) | –
14 | 49.4% | 2.3% | – | CN1CCC=C(C2=NOC(Sc3ccccc3)C2)C1 (stereo not drawn) | –
15 | 12.3% | 1.7% | – | CN1CCC=C(C2=NOC(CO)C2)C1 (stereo not drawn) | –
